Key:
MIC1 = assay: SPR binding of PROTACs to immobilized antibody MIC1; settings: binding of PROTACs to MIC1, steady-state model
Method: The binding affinities of hit antibodies MIC1 and MIC2 to a diverse set of VH032-based PROTACs (FIGS. 8A-8B) was determined by surface plasmon resonance (SPR) in a Biacore T200 instrument. The running buffer consist of PBS, 0.05% Tween-20, 2% DMSO and temperature and flow rate were set to 30° C. and 30 μL/min, respectively. The assay setup is depicted exemplarily in FIG. 7A. CM5 sensor chips were coated with antibody (=ligand; 2500 RU) using standard EDC/NHS chemistry. PROTACs (=analytes) were serially diluted (1 μM-1.9 nM) in running buffer, injected to the instrument in consecutive runs and were captured by the antibody resulting in an increase of the corresponding SPR response. After the association step (300 s), running buffer was injected for 600 s and the PROTAC dissociated from the antibody leading to signal decrease. After each run, residual bound PROTAC was removed from the immobilized antibody by injection of 10 mM glycine/HCl, pH 1.5 for 2×30 s regenerating the antibody for the next association and dissociation cycle. To compensate for matrix effects, the measured SPR response signal was subtracted by the analyte response to an inactivated (EDC/NHS, ethanol amine) reference surface omitting the ligand. Furthermore, a DMSO solvent correction was performed and analyte response was subtracted by the running buffer signal. […]

CD33xMIC10 = assay: SPR affinity of VHH clone (antibody fusion) to PROTACs; settings: CD33xMIC10 immobilized, 25° C., read-out: KD [M] for antibody binding to PROTAC
Procedure, shortened: (§1)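 SPR, 25° C: CD33–VHH fusion amine-coupled to CM5 (3,000–6,000 RU), PROTAC analyte 1 μM→0.002 μM (10 conc., 2-fold), running buffer phosphate pH 7.4/137 mM NaCl/0.05% Tween20/2% DMSO. 300 s association, 900 s dissociation; double-referenced, 1:1 Langmuir fit for kinetics.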

CD33xMIC8 = assay: as above; settings: CD33xMIC8 immobilized, 25° C., read-out: KD [M] for antibody binding to PROTAC
Procedure, shortened: as §1

CD33xMIC6 = assay: as above; settings: CD33xMIC6 immobilized, 25° C., read-out: KD [M] for antibody binding to PROTAC
Procedure, shortened: as §1

CD33xMIC5 = assay: as above; settings: CD33xMIC5 immobilized, 25° C., read-out: KD [M] for antibody binding to PROTAC
Procedure, shortened: as §1

CD33xMIC13 = assay: as above; settings: CD33xMIC13 immobilized, 25° C., read-out: KD [M] for antibody binding to PROTAC
Procedure, shortened: as §1

CD33xMIC12 = assay: as above; settings: CD33xMIC12 immobilized, 25° C., read-out: KD [M] for antibody binding to PROTAC
Procedure, shortened: as §1

A549 = assay: CellTiter-Glo cell viability assay (VHH-based PAX); settings: A549, PROTAC alone
Method: (§2) Several cell viability experiments were performed following the procedure described below: Cells were seeded in different media into white cell culture-treated flat and clear bottom multiwell plates followed by overnight incubation in a humid chamber at 37° C. and 5% CO2. Complexation was performed as described in chapter 7.4.
(§3) The solutions were added to the cells based on the antibody concentration using nanodrop dispension using a Tecan D300e Digital Dispenser and all wells were normalized to the same volume using 0.3% TW20 in PBS pH 7.4 and DMSO to a final solvent concentration of 0.05% DMSO and 0.003% TW20. Incubation was performed at 37° C. at 5% or 10% CO2 dependent on the medium. The assay was developed after 3 days if not otherwise stated using CellTiter-Glo Luminescent Cell Viability Assay as described in the manufacturer's protocol. In brief, the plates were equilibrated to room temperature for 30 minutes. 100 mL CellTiter-Glo Buffer were added to the CellTiter-Glo Substrate Flask and mixed well. 30 μL of the reagent was transferred to each well. After incubation for 3 minutes at room temperature while shaking at 550 rpm, the plate was incubated for another 10 minutes at room temperature. The luminescence was read on an Envision reader from Perkin Elmer. Solvent alone and Bortezomib (1.0E-05 M) served as high control (100% viability) and low control (0% viability), respectively. Raw data were converted into percent cell viability relative to the high and low control, which were set to 100% and 0%, respectively. […] The concentration corresponds to the concentration of PROTACs in the PAX.

NCIN87 = assay: CellTiter-Glo cell viability assay (VHH-based PAX); settings: NCIN87, PROTAC alone
Method: as §2, §3

SW620 = assay: CellTiter-Glo cell viability assay (VHH-based PAX); settings: SW620, PROTAC alone
Method: as §2, §3

RAMOS cells = assay: CellTiter-Glo cell viability assay (VHH-based PAX); settings: PROTAC alone
Method: as §2, §3

SKBR3 = assay: CellTiter-Glo cell viability assay (VHH-based PAX); settings: SKBR3, PROTAC alone
Method: as §2, §3

OVCAR3 = assay: CellTiter-Glo cell viability assay (VHH-based PAX); settings: OVCAR3, PROTAC alone
Method: as §2, §3

SMILES: Cc1ncsc1-c1ccc([C@H](C)NC(=O)[C@@H]2C[C@@H](O)CN2C(=O)[C@@H](NC(=O)COCCCOCCNC(=O)C[C@@H]2N=C(c3ccc(Cl)cc3)c3c(sc(C)c3C)-n3c(C)nnc32)C(C)(C)C)cc1 [ARV771]
- Kd (MIC1): 6.5 nM
- Kd (CD33xMIC10): 1.4e-07 M
- Kd (CD33xMIC8): 3.1e-08 M
- Kd (CD33xMIC6): 5.3e-08 M
- Kd (CD33xMIC5): 2.7e-07 M
- Kd (CD33xMIC13): 1.3e-08 M
- Kd (CD33xMIC12): 5.6e-09 M

SMILES: Cc1ncsc1-c1ccc(CNC(=O)[C@@H]2C[C@@H](O)CN2C(=O)[C@@H](NC(=O)CCCCCCCCCCNC(=O)c2cc3c(cc2CS(C)(=O)=O)-c2cn(C)c(=O)c4[nH]cc(c24)CN3c2ncc(F)cc2F)C(C)(C)C)cc1 [GNE987]
- IC50 (A549): 1.4 nM
- IC50 (NCIN87): 0.53 nM
- IC50 (SW620): 0.84 nM
- IC50 (RAMOS cells): 0.058 nM
- IC50 (SKBR3): 0.39 nM
- IC50 (OVCAR3): 0.4 nM
- Kd (CD33xMIC10): 1.3e-08 M
- Kd (CD33xMIC8): 6.5e-09 M
- Kd (CD33xMIC6): 4.1e-08 M
- Kd (CD33xMIC5): 9.6e-10 M
- Kd (CD33xMIC13): 2.3e-08 M
- Kd (CD33xMIC12): 4.2e-08 M
